For 15 compounds, T/C results are on record in PubChem BioAssay AID248 (DTP/NCI, 2004).

Values joined by “and” are separate entries in the source; they are usually repeats but may differ in a detail not shown here. Identical values can stand only once. Inconclusive results and toxic doses are left out.

In the test the test system is L1210 leukemia ip in BDF1 mice, survival T/C. Kind of test: NCI In Vivo Anticancer Drug Screen. Data for tumor model L1210 Leukemia (intraperitoneal) in B6D2F1 (BDF1) mice. Particulars: endpoint: mean survival time, higher = longer survival. The gist of the method: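 Tumor cells were implanted, animals were treated, and survival was followed. The result divides the treated measurement by the vehicle-control measurement.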

Where [1] appears, read: dose: 100.0 mg/kg/injection, schedule: Q01DX009 (ip), vehicle: Klucel (hydroxypropylcellulose) (HPC).
The mark [2] stands for this setting: dose: 100.0 mg/kg/injection, schedule: Q04DX003 (ip), vehicle: Klucel (hydroxypropylcellulose) (HPC).
The mark [3] stands for this setting: dose: 200.0 mg/kg/injection, schedule: Q01DX009 (ip), vehicle: Klucel (hydroxypropylcellulose) (HPC).
Setting [4] is: dose: 200.0 mg/kg/injection, schedule: Q04DX003 (ip), vehicle: Klucel (hydroxypropylcellulose) (HPC).
Where [5] appears, read: dose: 400.0 mg/kg/injection, schedule: Q01DX009 (ip), vehicle: Klucel (hydroxypropylcellulose) (HPC).
The mark [6] stands for this setting: dose: 400.0 mg/kg/injection, schedule: Q04DX003 (ip), vehicle: Klucel (hydroxypropylcellulose) (HPC).

`CCOC(=O)C(=O)Cc1cnc2ccccc2n1`: the T/C is, setting by setting: under setting [1], 113 % of control; under setting [2], 97 % of control; under setting [3], 94 % of control; under setting [4], 96 % of control; under setting [5], 92 % of control; under setting [6], 100 % of control.

As for `CCOC(=O)Nc1ccc2c(c1)/C(=N/O)c1ccccc1-2`, the T/C (dose: 100.0 mg/kg/injection, schedule: Q01DX001 (ip), vehicle: carboxymethylcellulose (CMC)) is 94 % of control; the T/C (dose: 200.0 mg/kg/injection, schedule: Q01DX001 (ip), vehicle: carboxymethylcellulose (CMC)) is 91 % of control; the T/C (dose: 400.0 mg/kg/injection, schedule: Q01DX001 (ip), vehicle: carboxymethylcellulose (CMC)) is 91 % of control.

In the case of `COc1cc(C(=O)NN2C(N)=NC(N)=NC2(C)C)cc(OC)c1OC`, the T/C is, setting by setting: (dose: 100.0 mg/kg/injection, schedule: Q04DX003 (ip), vehicle: saline sonified) 105 % of control; (dose: 200.0 mg/kg/injection, schedule: Q04DX003 (ip), vehicle: saline sonified) 101 % of control; (dose: 400.0 mg/kg/injection, schedule: Q04DX003 (ip), vehicle: saline sonified) 106 % of control.

For the compound `COc1cc(/C=N/Nc2nnc(N/N=C/c3cc(I)c(O)c(OC)c3)c3ccccc23)cc(I)c1O`, the T/C runs as follows: (dose: 50.0 mg/kg/injection, schedule: Q01DX001 (ip), vehicle: saline) 95 % of control; (dose: 100.0 mg/kg/injection, schedule: Q01DX001 (ip), vehicle: saline) 95 % of control; (dose: 200.0 mg/kg/injection, schedule: Q01DX001 (ip), vehicle: saline) 101 % of control; (dose: 400.0 mg/kg/injection, schedule: Q01DX001 (ip), vehicle: saline) 97 % of control.

As to `CN1CCC2(CC1)SSC1(CCN(C)CC1)S2`, the T/C was 98 % of control (dose: 100.0 mg/kg/injection, schedule: Q04DX003 (ip), vehicle: saline) and 98 % of control (dose: 200.0 mg/kg/injection, schedule: Q04DX003 (ip), vehicle: saline).

`Cc1cc(Cl)ccc1NC(=O)c1ccccc1`: the T/C was 98 % of control under setting [1]; 103 % of control under setting [2]; 105 % of control under setting [3]; 92 % of control under setting [4]; 96 % of control under setting [5]; 97 % of control under setting [6].

`ICc1ccc(CI)cc1`: the T/C (dose: 25.0 mg/kg/injection, schedule: Q01DX009 (ip), vehicle: saline) was 100 % of control; the T/C (dose: 100.0 mg/kg/injection, schedule: Q01DX001 (ip), vehicle: other) was 106 % of control; the T/C (dose: 100.0 mg/kg/injection, schedule: Q04DX003 (ip), vehicle: acetone) is 106 % of control; the T/C (dose: 200.0 mg/kg/injection, schedule: Q01DX001 (ip), vehicle: other) was 88 % of control; the T/C (dose: 400.0 mg/kg/injection, schedule: Q01DX001 (ip), vehicle: other) is 88 % of control.

In the case of `O=C(NCCF)NC1CCCCCCCCCCC1`, the T/C (dose: 9.5 mg/kg/injection, schedule: Q01DX001 (ip), vehicle: other) was 101 % of control; the T/C (dose: 19.0 mg/kg/injection, schedule: Q01DX001 (ip), vehicle: other) was 92 % of control; the T/C (dose: 38.0 mg/kg/injection, schedule: Q01DX001 (ip), vehicle: other) was 121 % of control.

As for `CN(C)C1C(CO)C(CO)C1(C)C` (stereo not drawn), the T/C reads like this: (dose: 100.0 mg/kg/injection, schedule: Q01DX001 (ip), vehicle: saline with Tween-80) 102 % of control; (dose: 200.0 mg/kg/injection, schedule: Q01DX001 (ip), vehicle: saline with Tween-80) 97 % of control.

Turning to `O=C(CCl)Nc1cc2ccccc2c2ccccc12`, the T/C is 88 % of control (dose: 75.0 mg/kg/injection, schedule: Q01DX001 (ip), vehicle: saline); 91 % of control (dose: 150.0 mg/kg/injection, schedule: Q01DX001 (ip), vehicle: saline); 96 % of control (dose: 300.0 mg/kg/injection, schedule: Q01DX001 (ip), vehicle: saline).

Turning to `COC(=O)CCNc1ccccc1-c1ccccc1`, the T/C is, setting by setting: (dose: 100.0 mg/kg/injection, schedule: Q04DX002 (ip), vehicle: saline) 95 % of control; (dose: 200.0 mg/kg/injection, schedule: Q04DX002 (ip), vehicle: saline) 114 % of control; (dose: 400.0 mg/kg/injection, schedule: Q04DX002 (ip), vehicle: saline) 103 % of control.

In the case of `Ic1nc(I)c(I)[nH]1`, the T/C reads like this: (dose: 100.0 mg/kg/injection, schedule: Q01DX009 (ip), vehicle: saline with Tween-80) 102 % of control; (dose: 200.0 mg/kg/injection, schedule: Q01DX009 (ip), vehicle: saline with Tween-80) 105 % of control; (dose: 400.0 mg/kg/injection, schedule: Q01DX009 (ip), vehicle: saline with Tween-80) 102 % of control.

With `COC(=O)NC1CC(OC2CC(O)(C(C)=O)Cc3c(O)c4c(c(O)c32)C(=O)c2c(OC)cccc2C4=O)OC(C)C1O` (stereo not drawn), the T/C reads like this: (dose: 2.0 mg/kg/injection, schedule: Q04DX003 (ip), vehicle: water) 105 % of control; (dose: 3.12 mg/kg/injection, schedule: Q01DX009 (ip), vehicle: saline with Tween-80) 103 % of control; (dose: 4.0 mg/kg/injection, schedule: Q04DX003 (ip), vehicle: water) 106 % of control; (dose: 6.25 mg/kg/injection, schedule: Q01DX009 (ip), vehicle: saline with Tween-80) 178 % of control; (dose: 8.0 mg/kg/injection, schedule: Q04DX003 (ip), vehicle: water) 112 % of control; (dose: 12.5 mg/kg/injection, schedule: Q01DX009 (ip), vehicle: saline with Tween-80) 124 % of control. Besides, the T/C was 109 % of control and 111 % of control (dose: 16.0 mg/kg/injection, schedule: Q04DX003 (ip), vehicle: water); 112 % of control (dose: 18.75 mg/kg/injection, schedule: Q04DX003 (ip), vehicle: saline with Tween-80); 120 % of control (dose: 25.0 mg/kg/injection, schedule: Q01DX009 (ip), vehicle: saline with Tween-80); 110 % of control (dose: 32.0 mg/kg/injection, schedule: Q04DX003 (ip), vehicle: water); 118 % of control (dose: 37.5 mg/kg/injection, schedule: Q04DX003 (ip), vehicle: saline with Tween-80); 122 % of control (dose: 50.0 mg/kg/injection, schedule: Q01DX009 (ip), vehicle: saline with Tween-80). The T/C is 110 % of control (dose: 64.0 mg/kg/injection, schedule: Q04DX003 (ip), vehicle: water); 118 % of control (dose: 75.0 mg/kg/injection, schedule: Q04DX003 (ip), vehicle: saline with Tween-80); 115 % of control (dose: 150.0 mg/kg/injection, schedule: Q04DX003 (ip), vehicle: saline with Tween-80); 102 % of control (dose: 125.0 micrograms/kg/injection, schedule: Q04DX003 (ip), vehicle: water); 107 % of control (dose: 250.0 micrograms/kg/injection, schedule: Q04DX003 (ip), vehicle: water); 101 % of control (dose: 500.0 micrograms/kg/injection, schedule: Q04DX003 (ip), vehicle: water). The T/C (dose: 1000.0 micrograms/kg/injection, schedule: Q04DX003 (ip), vehicle: water) is 103 % of control and the T/C (dose: 2000.0 micrograms/kg/injection, schedule: Q04DX003 (ip), vehicle: water) is 106 % of control.

Turning to `CC(C)CNNCC(C)C`, the T/C (dose: 75.0 mg/kg/injection, schedule: Q01DX001 (ip), vehicle: other) was 103 % of control.

For `CC(=O)[O][Pb]([c]1ccccc1)([c]1ccccc1)[c]1ccccc1`, the T/C by setting is: (dose: 0.5 mg/kg/injection, schedule: Q01DX015 (ip), vehicle: carboxymethylcellulose (CMC)) 112 % of control; (dose: 1.0 mg/kg/injection, schedule: Q01DX015 (ip), vehicle: carboxymethylcellulose (CMC)) 90 % of control; (dose: 2.0 mg/kg/injection, schedule: Q01DX015 (ip), vehicle: carboxymethylcellulose (CMC)) 87 % of control; (dose: 4.0 mg/kg/injection, schedule: Q01DX015 (ip), vehicle: carboxymethylcellulose (CMC)) 96 % of control.
